The supplement of paper PMC9013687

Key:
Danio rerio embryo [1] = details: exposure time: 2 dpf
Method: (§1)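 Zebrafish embryos (UFZ-OBI strain) were exposed from 2 hpf for 48 h (2 dpf) or 96 h (4 dpf) at 28 °C; spontaneous tail coiling was scored at 25 hpf. Morphological features from automated image analysis (FishInspector), heart rate and locomotor response were fitted with drc models. Quantal endpoints were dichotomised at 2.5 SD from controls and fitted with a log-logistic model; heart rate, pigmentation and STC were normalised to the replicate control mean. Betamethasone was tested as betamethasone dipropionate, diflorasone as diflorasone diacetate.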

Danio rerio embryo [2] = test system: Danio rerio embryo
Method: as §1

Danio rerio embryo [3] = details: exposure time: 4 dpf
Method: as §1

Danio rerio embryo [4] = test: EC50 Curvature_Increase; details: exposure time: 2 dpf
Method: as §1

Danio rerio embryo [5] = test: EC50 Body length_Decrease
Method: as §1

Danio rerio embryo [6] = test: EC50 Pericard size_Increase
Method: as §1

Danio rerio embryo [7] = test: EC50 Eye-jaw distance_Decrease; details: exposure time: 4 dpf
Method: as §1

Danio rerio embryo [8] = test: EC50 Otolith-eye distance_Decrease; details: exposure time: 4 dpf
Method: as §1

Danio rerio embryo [9] = test: EC10 LMR dark; higher = less potent; details: exposure time: 4 dpf
Method: as §1

Danio rerio embryo [10] = test: EC20 LMR dark; higher = less potent; details: exposure time: 4 dpf
Method: as §1

Danio rerio embryo [11] = test: EC20 Any effect; higher = less potent
Method: as §1

Danio rerio embryo [12] = test: EC10 Any effect; higher = less potent
Method: as §1

Danio rerio embryo [13] = test: EC20 STC bell shape; higher = less potent; details: exposure time: 25 h
Method: as §1

Danio rerio embryo [14] = test: EC10 STC bell shape; higher = less potent; details: exposure time: 25 h
Method: as §1

Danio rerio embryo [15] = test: EC10 Curvature_Increase; higher = less potent; details: exposure time: 2 dpf
Method: as §1

Danio rerio embryo [16] = test: EC10 LMR ligth decrease; higher = less potent; details: exposure time: 4 dpf
Method: as §1

Danio rerio embryo [17] = test: EC20 LMR ligth decrease; higher = less potent; details: exposure time: 4 dpf
Method: as §1

Danio rerio embryo [18] = test: EC20 Curvature_Increase; higher = less potent; details: exposure time: 2 dpf
Method: as §1

Danio rerio embryo [19] = test: EC20 Body length_Decrease; higher = less potent
Method: as §1

Danio rerio embryo [20] = test: EC10 Body length_Decrease; higher = less potent
Method: as §1

Danio rerio embryo [21] = test: EC10 Pigmentation decrease; higher = less potent; details: exposure time: 2 dpf
Method: as §1

Danio rerio embryo [22] = test: EC20 Pigmentation decrease; higher = less potent; details: exposure time: 2 dpf
Method: as §1

Danio rerio embryo [23] = test: EC20 Pericard size_Increase; higher = less potent
Method: as §1

Danio rerio embryo [24] = test: EC10 Pericard size_Increase; higher = less potent
Method: as §1

Danio rerio embryo [25] = test: EC20 Eye-jaw distance_Decrease; higher = less potent; details: exposure time: 4 dpf
Method: as §1

Danio rerio embryo [26] = test: EC10 Eye-jaw distance_Decrease; higher = less potent; details: exposure time: 4 dpf
Method: as §1

Danio rerio embryo [27] = test: EC20 Otolith-eye distance_Decrease; higher = less potent; details: exposure time: 4 dpf
Method: as §1

Danio rerio embryo [28] = test: EC10 Otolith-eye distance_Decrease; higher = less potent; details: exposure time: 4 dpf
Method: as §1

Danio rerio embryo [29] = test: spontaneous tail coiling frequency (coils/min/embryo); higher = more spontaneous movement; details: 25 hpf
Method: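 Spontaneous tail coilings of zebrafish embryos exposed from 2 hpf were recorded at 24-25 hpf in 1-min videos and detected by a KNIME workflow from grey-value variance. Betamethasone was tested as the dipropionate, diflorasone as the diacetate.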

O=C(O)Cc1ccccc1Nc1c(Cl)cccc1Cl [Diclofenac]
Details	EC10 Curvature Increase [µM]	EC10 Eye-jaw distance Decrease [µM]	EC10 LMR dark [µM]	EC10 LMR ligth decrease [µM]	EC10 Otolith-eye distance Decrease [µM]	EC10 Pigmentation decrease [µM]	EC10 STC bell shape [µM]	EC20 Curvature Increase [µM]	EC20 Eye-jaw distance Decrease [µM]	EC20 LMR dark [µM]	EC20 LMR ligth decrease [µM]	EC20 Otolith-eye distance Decrease [µM]	EC20 Pigmentation decrease [µM]	EC20 STC bell shape [µM]	EC50 Curvature Increase [µM]	EC50 Eye-jaw distance Decrease [µM]	EC50 LMR dark [µM]	EC50 Otolith-eye distance Decrease [µM]	EC50 Pigmentation decrease [µM]
Danio rerio embryo [1]	–	–	–	–	–	–	–	–	–	–	–	–	–	–	–	–	–	–	18.8
Danio rerio embryo [3]	–	–	–	–	–	–	–	–	–	–	–	–	–	–	–	–	8.07	–	–
Danio rerio embryo [4]	–	–	–	–	–	–	–	–	–	–	–	–	–	–	13.2	–	–	–	–
Danio rerio embryo [7]	–	–	–	–	–	–	–	–	–	–	–	–	–	–	–	10.1	–	–	–
Danio rerio embryo [8]	–	–	–	–	–	–	–	–	–	–	–	–	–	–	–	–	–	9.6	–
Danio rerio embryo [9]	–	–	6.21	–	–	–	–	–	–	–	–	–	–	–	–	–	–	–	–
Danio rerio embryo [10]	–	–	–	–	–	–	–	–	–	6.84	–	–	–	–	–	–	–	–	–
Danio rerio embryo [13]	–	–	–	–	–	–	–	–	–	–	–	–	–	37.8	–	–	–	–	–
Danio rerio embryo [14]	–	–	–	–	–	–	32.4	–	–	–	–	–	–	–	–	–	–	–	–
Danio rerio embryo [15]	11.5	–	–	–	–	–	–	–	–	–	–	–	–	–	–	–	–	–	–
Danio rerio embryo [16]	–	–	–	5.85	–	–	–	–	–	–	–	–	–	–	–	–	–	–	–
Danio rerio embryo [17]	–	–	–	–	–	–	–	–	–	–	6.64	–	–	–	–	–	–	–	–
Danio rerio embryo [18]	–	–	–	–	–	–	–	12.1	–	–	–	–	–	–	–	–	–	–	–
Danio rerio embryo [21]	–	–	–	–	–	10.9	–	–	–	–	–	–	–	–	–	–	–	–	–
Danio rerio embryo [22]	–	–	–	–	–	–	–	–	–	–	–	–	13.2	–	–	–	–	–	–
Danio rerio embryo [25]	–	–	–	–	–	–	–	–	6.88	–	–	–	–	–	–	–	–	–	–
Danio rerio embryo [26]	–	5.49	–	–	–	–	–	–	–	–	–	–	–	–	–	–	–	–	–
Danio rerio embryo [27]	–	–	–	–	–	–	–	–	–	–	–	6.89	–	–	–	–	–	–	–
Danio rerio embryo [28]	–	–	–	–	5.67	–	–	–	–	–	–	–	–	–	–	–	–	–	–

Details	EC10 Any effect [µM]	EC10 Body length Decrease [µM]	EC10 Pericard size Increase [µM]	EC20 Any effect [µM]	EC20 Body length Decrease [µM]	EC20 Pericard size Increase [µM]	EC50 Any effect [µM]	EC50 Body length Decrease [µM]	EC50 LMR ligth decrease [µM]	EC50 Pericard size Increase [µM]	EC50 STC bell shape [µM]	spontaneous tail coiling frequency
Danio rerio embryo [2], exposure time: 2 dpf	–	–	–	–	–	–	12.4	–	–	–	–	–
Danio rerio embryo [2], exposure time: 4 dpf	–	–	–	–	–	–	8.22	–	8.24	–	–	–
Danio rerio embryo [2], exposure time: 25 h	–	–	–	–	–	–	–	–	–	–	50.9	–
Danio rerio embryo [5], exposure time: 2 dpf	–	–	–	–	–	–	–	14.2	–	–	–	–
Danio rerio embryo [5], exposure time: 4 dpf	–	–	–	–	–	–	–	8.33	–	–	–	–
Danio rerio embryo [6], exposure time: 2 dpf	–	–	–	–	–	–	–	–	–	12.2	–	–
Danio rerio embryo [6], exposure time: 4 dpf	–	–	–	–	–	–	–	–	–	8.32	–	–
Danio rerio embryo [11], exposure time: 2 dpf	–	–	–	11.3	–	–	–	–	–	–	–	–
Danio rerio embryo [11], exposure time: 4 dpf	–	–	–	5.45	–	–	–	–	–	–	–	–
Danio rerio embryo [12], exposure time: 2 dpf	10.7	–	–	–	–	–	–	–	–	–	–	–
Danio rerio embryo [12], exposure time: 4 dpf	4.28	–	–	–	–	–	–	–	–	–	–	–
Danio rerio embryo [19], exposure time: 2 dpf	–	–	–	–	12.1	–	–	–	–	–	–	–
Danio rerio embryo [19], exposure time: 4 dpf	–	–	–	–	7.11	–	–	–	–	–	–	–
Danio rerio embryo [20], exposure time: 2 dpf	–	11.1	–	–	–	–	–	–	–	–	–	–
Danio rerio embryo [20], exposure time: 4 dpf	–	6.47	–	–	–	–	–	–	–	–	–	–
Danio rerio embryo [23], exposure time: 2 dpf	–	–	–	–	–	11.1	–	–	–	–	–	–
Danio rerio embryo [23], exposure time: 4 dpf	–	–	–	–	–	6.72	–	–	–	–	–	–
Danio rerio embryo [24], exposure time: 2 dpf	–	–	10.5	–	–	–	–	–	–	–	–	–
Danio rerio embryo [24], exposure time: 4 dpf	–	–	5.93	–	–	–	–	–	–	–	–	–
Danio rerio embryo [29], 1 µM	–	–	–	–	–	–	–	–	–	–	–	2.73
Danio rerio embryo [29], 2 µM	–	–	–	–	–	–	–	–	–	–	–	2.93
Danio rerio embryo [29], 3.123 µM	–	–	–	–	–	–	–	–	–	–	–	2.81
Danio rerio embryo [29], 4 µM	–	–	–	–	–	–	–	–	–	–	–	2.63
Danio rerio embryo [29], 5.12 µM	–	–	–	–	–	–	–	–	–	–	–	2.43
Danio rerio embryo [29], 6.25 µM	–	–	–	–	–	–	–	–	–	–	–	2.41
Danio rerio embryo [29], 6.4 µM	–	–	–	–	–	–	–	–	–	–	–	2.64
Danio rerio embryo [29], 8 µM	–	–	–	–	–	–	–	–	–	–	–	3.93
Danio rerio embryo [29], 10 µM	–	–	–	–	–	–	–	–	–	–	–	3.72
Danio rerio embryo [29], 12.5 µM	–	–	–	–	–	–	–	–	–	–	–	3.42
Danio rerio embryo [29], 15.6 µM	–	–	–	–	–	–	–	–	–	–	–	4.34
Danio rerio embryo [29], 25 µM	–	–	–	–	–	–	–	–	–	–	–	4.62
Danio rerio embryo [29], 31.25 µM	–	–	–	–	–	–	–	–	–	–	–	3.8
Danio rerio embryo [29], 50 µM	–	–	–	–	–	–	–	–	–	–	–	2.15
Danio rerio embryo [29], 62.5 µM	–	–	–	–	–	–	–	–	–	–	–	1.4
Danio rerio embryo [29], 100 µM	–	–	–	–	–	–	–	–	–	–	–	0
Danio rerio embryo [29], 150 µM	–	–	–	–	–	–	–	–	–	–	–	0
